Data on seven molecules can be found in PubChem BioAssay (NCI).

Test systems include MALME-3M melanoma; NCI-H226 lung; RXF 393 renal; UO-31 renal; MDA-MB-231 breast; KM12 colon; HS 578T breast; SN12C renal; SNB-75 CNS; RPMI-8226 leukemia.
Common to all, as to assay: NCI anticancer screen, dose series, 48 h

Values joined by “and” are separate entries in the source; they are usually repeats but may differ in a detail not shown here. Equal values may be shown once.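 Exposure lasted 48 hours, with cells grown in 96-well plates and compounds tested at five concentrations. The concentration for 50% growth inhibition is given as GI50. The concentration for full growth arrest is given as TGI.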 Where only a bound is given, the exact number is not on record here.

For `C[C@@]1(C(=O)O)CCC[C@]2(C)C1CC[C@@]13CC(=O)[C@@](CO)(CC[C@]12O)C3` (stereo not given in full), the GI50 with MALME-3M melanoma is 24.1 µM; in the test with NCI-H226 lung, greater than 100 µM; with RXF 393 renal, greater than 100 µM; with UO-31 renal it was greater than 100 µM; in the test with MDA-MB-231 breast, greater than 100 µM; in the test on KM12 colon, greater than 100 µM. Moreover, the GI50 in the test with HS 578T breast, with SN12C renal, in the test with SNB-75 CNS and in the test with RPMI-8226 leukemia was greater than 100 µM in each case. Moreover, the TGI in the test on MALME-3M melanoma, in the test on NCI-H226 lung, in the test on RXF 393 renal, in the test on UO-31 renal, with MDA-MB-231 breast and in the test on KM12 colon was greater than 100 µM in each case. Also, the TGI in the test on HS 578T breast, in the test on SN12C renal, in the test with SNB-75 CNS and with RPMI-8226 leukemia was greater than 100 µM throughout.

Regarding `CCOC(=O)Nc1ccc2c(c1)/C(=N\NC(N)=S)c1ccccc1-2`, the GI50 was 9.23 µM in the test with MALME-3M melanoma; 4.43 µM in the test on NCI-H226 lung; 1.93 µM in the test on RXF 393 renal; 3.97 µM with UO-31 renal; 3.48 µM with MDA-MB-231 breast; 3.29 µM with KM12 colon. The GI50 with HS 578T breast was 5.43 µM; in the test on SN12C renal, 5.94 µM; in the test on SNB-75 CNS it was 4.19 µM; in the test with RPMI-8226 leukemia, 2.49 µM. Further, the TGI was 33.4 µM in the test with MALME-3M melanoma; 17.6 µM with NCI-H226 lung; 4.6 µM with RXF 393 renal; 14.2 µM with UO-31 renal; greater than 54.6 µM in the test on MDA-MB-231 breast; 13.6 µM in the test with KM12 colon. The TGI in the test on HS 578T breast was 36.7 µM; in the test with SN12C renal, 65.7 µM; in the test with SNB-75 CNS, 18.2 µM; in the test on RPMI-8226 leukemia it was 12.9 µM.

Regarding `C=C1C(=O)O[C@H]2[C@H]1CC/C(CNC(=O)/C=C/c1cc(OC)c(OC)c(OC)c1)=C\CC[C@@]1(C)O[C@@H]21`, the GI50 in the test on MALME-3M melanoma is 1.34 µM; in the test on NCI-H226 lung it was 7.72 µM; in the test with RXF 393 renal, 0.298 µM; with UO-31 renal, 1.55 µM; in the test with MDA-MB-231 breast it was 3.01 µM; with KM12 colon, 7.62 µM. Besides, the GI50 in the test with HS 578T breast was 4.54 µM; with SN12C renal it was 3.46 µM; in the test with SNB-75 CNS it was 2.93 µM; in the test with RPMI-8226 leukemia it was 1.59 µM. The TGI was determined as 3.44 µM in the test on MALME-3M melanoma; 28.7 µM in the test with NCI-H226 lung; 1.88 µM with RXF 393 renal; 4.08 µM in the test on UO-31 renal; 14.1 µM with MDA-MB-231 breast; 21.1 µM in the test with KM12 colon. The TGI in the test on HS 578T breast came out at 27.9 µM; with SN12C renal it was 14.3 µM; with SNB-75 CNS it was 22.9 µM; in the test with RPMI-8226 leukemia it was 5.47 µM.

On to `CCCCON(OC(=O)c1ccc2ccccc2c1)C(=O)c1ccccc1`, for which the GI50 is greater than 100 µM in the test with MALME-3M melanoma; 74 µM in the test with NCI-H226 lung; greater than 100 µM in the test on RXF 393 renal; 53.1 µM in the test with UO-31 renal; greater than 100 µM with MDA-MB-231 breast; greater than 100 µM in the test on KM12 colon. Moreover, the GI50 with HS 578T breast was greater than 100 µM; in the test with SN12C renal it was greater than 100 µM; in the test on SNB-75 CNS, 86.2 µM; in the test with RPMI-8226 leukemia it was 74.2 µM. Besides, the TGI with MALME-3M melanoma, in the test on NCI-H226 lung, in the test on RXF 393 renal, in the test with UO-31 renal, in the test with MDA-MB-231 breast and with KM12 colon was greater than 100 µM throughout. Besides, the TGI in the test with HS 578T breast, with SN12C renal, in the test on SNB-75 CNS and with RPMI-8226 leukemia was greater than 100 µM throughout.

As to `C[C@]12CC[C@@H]3c4ccc(OC(=O)N(CCCl)CCCl)cc4CC[C@H]3[C@@H]1CC[C@@H]2O`, the GI50 is 1.16 µM in the test on MALME-3M melanoma; 3.98 µM in the test with NCI-H226 lung; 2.23 µM in the test on RXF 393 renal; 3.12 µM with UO-31 renal; 2.59 µM in the test on MDA-MB-231 breast; 3.1 µM in the test on KM12 colon. Also, the GI50 is 1.89 µM with HS 578T breast, 3.37 µM with SN12C renal, 2.48 µM with SNB-75 CNS and 1.62 µM in the test with RPMI-8226 leukemia. The TGI with MALME-3M melanoma came out at 7.52 µM; in the test on NCI-H226 lung it was 22.3 µM; in the test with RXF 393 renal, 6.42 µM; in the test on UO-31 renal, 14 µM; in the test on MDA-MB-231 breast, 8.29 µM; with KM12 colon, 9.77 µM. Further, the TGI with HS 578T breast is 10.8 µM; in the test with SN12C renal, 17.4 µM and 3.48 µM; in the test with SNB-75 CNS it was 15.1 µM; with RPMI-8226 leukemia it was 5.42 µM.

Consider `COc1ncnc2c(-c3ccccc3)cn(COCc3ccccc3)c12`, for which the GI50 with MALME-3M melanoma was 2.52 µM; in the test with NCI-H226 lung, 2.03 µM; with RXF 393 renal it was 2.5 µM; in the test with UO-31 renal, 2.58 µM; with MDA-MB-231 breast, 4.04 µM; in the test with KM12 colon, 3.1 µM. Besides, the GI50 is 7.8 µM in the test on HS 578T breast, 3.12 µM with SN12C renal, 4.03 µM with SNB-75 CNS and 2.03 µM with RPMI-8226 leukemia. The TGI was 7.69 µM in the test on MALME-3M melanoma; 8.12 µM in the test with NCI-H226 lung; 7.71 µM with RXF 393 renal; 12 µM in the test on UO-31 renal; greater than 100 µM in the test with MDA-MB-231 breast; 19.9 µM in the test with KM12 colon. For the same molecule, the TGI with HS 578T breast was greater than 100 µM; with SN12C renal, 30 µM; in the test on SNB-75 CNS it was greater than 100 µM; in the test on RPMI-8226 leukemia it was 13 µM.

As for `Oc1c(-c2nnc(-c3ccccc3Cl)o2)sc2nnc(-c3ccccc3)c(-c3ccccc3)c12`, the GI50 was 4.22 µM in the test on MALME-3M melanoma; 16.1 µM with NCI-H226 lung; 24.6 µM in the test with RXF 393 renal; 2.38 µM in the test with UO-31 renal; 4.08 µM in the test with MDA-MB-231 breast; 4.36 µM in the test with KM12 colon. Also, the GI50 in the test on HS 578T breast was 3.78 µM; in the test with SN12C renal it was 4.29 µM; in the test on SNB-75 CNS, 6.94 µM; in the test with RPMI-8226 leukemia, 2.92 µM. Besides, the TGI with MALME-3M melanoma was 33.1 µM; in the test on NCI-H226 lung it was greater than 100 µM; in the test on RXF 393 renal, greater than 100 µM; in the test with UO-31 renal, 8.4 µM; in the test with MDA-MB-231 breast, 40.1 µM; with KM12 colon, 51.3 µM. Further, the TGI in the test with HS 578T breast is greater than 100 µM; in the test on SN12C renal, 90.5 µM; with SNB-75 CNS, greater than 100 µM; in the test with RPMI-8226 leukemia it was greater than 100 µM.
